PubChem BioAssay AID1918952 (Molecular Pharmacology Branch, DTP, NCI, 2023)

Test system: LG0703-F948-PDC complex spheroid viability
Test: Anticancer human tumor LG0703-F948-PDC patient-derived lung adenocarcinoma cell line growth inhibition
Settings: for IC50: curve of first compound; for viability, T/C: stronger effect = lower value
Procedure, shortened: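 Drug combinations with the LSD1 inhibitor iadademstat tested on tumor cells co-cultured as spheroids with endothelial cells and mesenchymal stem cells. Concentrations descended in half-log increments from clinical Cmax or 10 microM.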

[1] = second compound 0.1 µM, first compound 0.00316 µM
[2] = second compound 0.1 µM, first compound 0.01 µM
[3] = second compound 0.1 µM, first compound 0.0316 µM
[4] = second compound 0.1 µM, first compound 0.1 µM
[5] = second compound 0.316 µM, first compound 0.00316 µM
[6] = second compound 0.316 µM, first compound 0.01 µM
[7] = second compound 0.316 µM, first compound 0.0316 µM
[8] = second compound 0.316 µM, first compound 0.1 µM
[9] = second compound 1 µM, first compound 0.00316 µM
[10] = second compound 1 µM, first compound 0.01 µM
[11] = second compound 1 µM, first compound 0.0316 µM
[12] = second compound 1 µM, first compound 0.1 µM
[13] = second compound 3.16 µM, first compound 0.00316 µM
[14] = second compound 3.16 µM, first compound 0.01 µM
[15] = second compound 3.16 µM, first compound 0.0316 µM
[16] = second compound 3.16 µM, first compound 0.1 µM
[17] = second compound 10 µM, first compound 0.00316 µM
[18] = second compound 10 µM, first compound 0.01 µM
[19] = second compound 10 µM, first compound 0.0316 µM
[20] = second compound 10 µM, first compound 0.1 µM
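Note: spheroids exposed to agents for seven days before readout.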
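Throughout, for viability, T/C: 100% = DMSO vehicle control wells as normalization base.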

SMILES: COc1cc(Nc2ncc3c(n2)-c2ccc(Cl)cc2C(c2c(F)cccc2OC)=NC3)ccc1C(=O)O + NC1CCC(NC2CC2c2ccccc2)CC1
- IC50 (second compound 0.1 µM): 218 nM
- IC50 (second compound 0.316 µM): 172 nM
- IC50 (second compound 1 µM): 201 nM
- IC50 (second compound 3.16 µM): 229 nM
- IC50 (second compound 10 µM): 229 nM
- viability, T/C [1]: 87.8%
- viability, T/C [2]: 80.6%
- viability, T/C [3]: 81.6%
- viability, T/C [4]: 73.5%
- viability, T/C (second compound 0.1 µM, first compound 0.316 µM): 38.9%
- viability, T/C (second compound 0.1 µM, first compound 1 µM): 6.3%
- viability, T/C [5]: 96.4%
- viability, T/C [6]: 86.7%
- viability, T/C [7]: 79.8%
- viability, T/C [8]: 61.6%
- viability, T/C (second compound 0.316 µM, first compound 0.316 µM): 36.6%
- viability, T/C (second compound 0.316 µM, first compound 1 µM): 5.23%
- viability, T/C [9]: 104%
- viability, T/C [10]: 87.6%
- viability, T/C [11]: 91.4%
- viability, T/C [12]: 71%
- viability, T/C (second compound 1 µM, first compound 0.316 µM): 36.2%
- viability, T/C (second compound 1 µM, first compound 1 µM): 5.15%
- viability, T/C [13]: 110%
- viability, T/C [14]: 94.1%
- viability, T/C [15]: 94.4%
- viability, T/C [16]: 83.7%
- viability, T/C (second compound 3.16 µM, first compound 0.316 µM): 36.9%
- viability, T/C (second compound 3.16 µM, first compound 1 µM): 4.29%
- viability, T/C [17]: 108%
- viability, T/C [18]: 85.3%
- viability, T/C [19]: 89.9%
- viability, T/C [20]: 83.7%
- viability, T/C (second compound 10 µM, first compound 0.316 µM): 37.1%
- viability, T/C (second compound 10 µM, first compound 1 µM): 2.91%

SMILES: Cn1ncnc1C1c2n[nH]c(=O)c3cc(F)cc(c23)NC1c1ccc(F)cc1 (stereo not given) + NC1CCC(NC2CC2c2ccccc2)CC1
- IC50 (second compound 0.1 µM): > 100 nM
- IC50 (second compound 0.316 µM): > 100 nM
- IC50 (second compound 1 µM): > 100 nM
- IC50 (second compound 3.16 µM): > 100 nM
- IC50 (second compound 10 µM): > 100 nM
- viability, T/C (second compound 0.1 µM, first compound 0.000316 µM): 102%
- viability, T/C (second compound 0.1 µM, first compound 0.001 µM): 96.2%
- viability, T/C [1]: 93.1%
- viability, T/C [2]: 104%
- viability, T/C [3]: 88.4%
- viability, T/C [4]: 97.8%
- viability, T/C (second compound 0.316 µM, first compound 0.000316 µM): 111%
- viability, T/C (second compound 0.316 µM, first compound 0.001 µM): 108%
- viability, T/C [5]: 95.8%
- viability, T/C [6]: 113%
- viability, T/C [7]: 93.1%
- viability, T/C [8]: 96.9%
- viability, T/C (second compound 1 µM, first compound 0.000316 µM): 113%
- viability, T/C (second compound 1 µM, first compound 0.001 µM): 128%
- viability, T/C [9]: 116%
- viability, T/C [10]: 111%
- viability, T/C [11]: 115%
- viability, T/C [12]: 97.7%
- viability, T/C (second compound 3.16 µM, first compound 0.000316 µM): 122%
- viability, T/C (second compound 3.16 µM, first compound 0.001 µM): 133%
- viability, T/C [13]: 115%
- viability, T/C [14]: 123%
- viability, T/C [15]: 117%
- viability, T/C [16]: 122%
- viability, T/C (second compound 10 µM, first compound 0.000316 µM): 108%
- viability, T/C (second compound 10 µM, first compound 0.001 µM): 123%
- viability, T/C [17]: 115%
- viability, T/C [18]: 117%
- viability, T/C [19]: 111%
- viability, T/C [20]: 121%

SMILES: NS(=O)(=O)OCC1CC(n2ccc3c(NC4CCc5ccccc54)ncnc32)CC1O (stereo not given) + NC1CCC(NC2CC2c2ccccc2)CC1
- IC50 (second compound 0.1 µM): 546 nM
- IC50 (second compound 0.316 µM): 607 nM
- IC50 (second compound 1 µM): 670 nM
- IC50 (second compound 3.16 µM): 633 nM
- IC50 (second compound 10 µM): 467 nM
- viability, T/C (second compound 0.1 µM, first compound 0.00949 µM): 106%
- viability, T/C (second compound 0.1 µM, first compound 0.03 µM): 111%
- viability, T/C (second compound 0.1 µM, first compound 0.0949 µM): 106%
- viability, T/C (second compound 0.1 µM, first compound 0.3 µM): 70.7%
- viability, T/C (second compound 0.1 µM, first compound 0.949 µM): 31.4%
- viability, T/C (second compound 0.1 µM, first compound 3 µM): 19.1%
- viability, T/C (second compound 0.316 µM, first compound 0.00949 µM): 111%
- viability, T/C (second compound 0.316 µM, first compound 0.03 µM): 123%
- viability, T/C (second compound 0.316 µM, first compound 0.0949 µM): 109%
- viability, T/C (second compound 0.316 µM, first compound 0.3 µM): 80.5%
- viability, T/C (second compound 0.316 µM, first compound 0.949 µM): 30.7%
- viability, T/C (second compound 0.316 µM, first compound 3 µM): 17.1%
- viability, T/C (second compound 1 µM, first compound 0.00949 µM): 113%
- viability, T/C (second compound 1 µM, first compound 0.03 µM): 144%
- viability, T/C (second compound 1 µM, first compound 0.0949 µM): 105%
- viability, T/C (second compound 1 µM, first compound 0.3 µM): 83.3%
- viability, T/C (second compound 1 µM, first compound 0.949 µM): 35.9%
- viability, T/C (second compound 1 µM, first compound 3 µM): 16.2%
- viability, T/C (second compound 3.16 µM, first compound 0.00949 µM): 124%
- viability, T/C (second compound 3.16 µM, first compound 0.03 µM): 141%
- viability, T/C (second compound 3.16 µM, first compound 0.0949 µM): 112%
- viability, T/C (second compound 3.16 µM, first compound 0.3 µM): 82.5%
- viability, T/C (second compound 3.16 µM, first compound 0.949 µM): 32.4%
- viability, T/C (second compound 3.16 µM, first compound 3 µM): 13.6%
- viability, T/C (second compound 10 µM, first compound 0.00949 µM): 124%
- viability, T/C (second compound 10 µM, first compound 0.03 µM): 124%
- viability, T/C (second compound 10 µM, first compound 0.0949 µM): 124%
- viability, T/C (second compound 10 µM, first compound 0.3 µM): 69.3%
- viability, T/C (second compound 10 µM, first compound 0.949 µM): 20.4%
- viability, T/C (second compound 10 µM, first compound 3 µM): 8.21%
